Tests used:
Glutamate NMDA receptor [1] = test: Inhibition of N-methyl-D-aspartate (NMDA) Receptor, by the displacement of [3H]MK-801 in rat brain membranes; assay type: cell membranes
[2] = target: T1, Sodium-dependent dopamine transporter (Homo sapiens, UniProt Q01959); test: Equilibrium dissociation constant (KD) for Competitive binding between [3H]WIN-35428 and the compound at human transporter-hDAT
[3] = target: Norepinephrine transporter (Rattus norvegicus, UniProt Q9WTR4); assay type: subcellular, Hippocampus
Chain of Norepinephrine transporter (Q9WTR4 whole entry): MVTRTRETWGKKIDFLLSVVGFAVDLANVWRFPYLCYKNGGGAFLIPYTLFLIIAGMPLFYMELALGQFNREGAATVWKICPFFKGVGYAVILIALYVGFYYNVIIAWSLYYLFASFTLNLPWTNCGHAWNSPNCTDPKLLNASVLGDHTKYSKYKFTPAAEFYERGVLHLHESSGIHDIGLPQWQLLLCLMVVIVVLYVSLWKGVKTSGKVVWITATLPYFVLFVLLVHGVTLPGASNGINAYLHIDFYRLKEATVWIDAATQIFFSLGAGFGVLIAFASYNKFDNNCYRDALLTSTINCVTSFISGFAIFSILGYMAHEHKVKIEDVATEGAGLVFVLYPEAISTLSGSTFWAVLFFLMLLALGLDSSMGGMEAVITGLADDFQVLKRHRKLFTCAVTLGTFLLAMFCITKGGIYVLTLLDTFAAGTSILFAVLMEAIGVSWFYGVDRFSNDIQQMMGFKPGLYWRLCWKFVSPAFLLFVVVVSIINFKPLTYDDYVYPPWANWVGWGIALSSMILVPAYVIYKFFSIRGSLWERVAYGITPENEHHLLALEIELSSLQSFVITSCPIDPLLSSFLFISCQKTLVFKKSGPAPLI

[4] = target: Sodium-dependent noradrenaline transporter (Homo sapiens, UniProt P23975)
Chain of Sodium-dependent noradrenaline transporter (P23975 whole entry): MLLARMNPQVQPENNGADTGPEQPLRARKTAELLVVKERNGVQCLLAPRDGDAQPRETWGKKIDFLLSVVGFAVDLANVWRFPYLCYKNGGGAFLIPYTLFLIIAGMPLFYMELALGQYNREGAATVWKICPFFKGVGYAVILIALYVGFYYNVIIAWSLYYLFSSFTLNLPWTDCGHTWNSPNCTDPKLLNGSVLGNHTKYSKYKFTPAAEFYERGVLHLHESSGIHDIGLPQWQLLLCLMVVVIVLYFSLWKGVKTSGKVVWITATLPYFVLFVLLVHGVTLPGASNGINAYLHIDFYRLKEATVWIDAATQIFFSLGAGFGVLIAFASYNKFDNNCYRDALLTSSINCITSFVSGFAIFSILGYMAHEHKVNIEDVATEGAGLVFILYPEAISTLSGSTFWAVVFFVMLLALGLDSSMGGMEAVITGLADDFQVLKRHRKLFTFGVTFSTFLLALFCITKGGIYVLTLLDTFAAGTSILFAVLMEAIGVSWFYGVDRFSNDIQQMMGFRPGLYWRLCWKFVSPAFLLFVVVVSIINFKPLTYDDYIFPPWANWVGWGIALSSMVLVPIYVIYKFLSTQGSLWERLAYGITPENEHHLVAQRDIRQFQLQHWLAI

[5] = target: Sodium-dependent dopamine transporter (Rattus norvegicus, UniProt P23977); test: Inhibition of [3H]- DA reuptake into rat striatal synaptosomes; assay type: subcellular, Brain
Chain of Sodium-dependent dopamine transporter (Rattus norvegicus, UniProt P23977) (P23977 whole entry): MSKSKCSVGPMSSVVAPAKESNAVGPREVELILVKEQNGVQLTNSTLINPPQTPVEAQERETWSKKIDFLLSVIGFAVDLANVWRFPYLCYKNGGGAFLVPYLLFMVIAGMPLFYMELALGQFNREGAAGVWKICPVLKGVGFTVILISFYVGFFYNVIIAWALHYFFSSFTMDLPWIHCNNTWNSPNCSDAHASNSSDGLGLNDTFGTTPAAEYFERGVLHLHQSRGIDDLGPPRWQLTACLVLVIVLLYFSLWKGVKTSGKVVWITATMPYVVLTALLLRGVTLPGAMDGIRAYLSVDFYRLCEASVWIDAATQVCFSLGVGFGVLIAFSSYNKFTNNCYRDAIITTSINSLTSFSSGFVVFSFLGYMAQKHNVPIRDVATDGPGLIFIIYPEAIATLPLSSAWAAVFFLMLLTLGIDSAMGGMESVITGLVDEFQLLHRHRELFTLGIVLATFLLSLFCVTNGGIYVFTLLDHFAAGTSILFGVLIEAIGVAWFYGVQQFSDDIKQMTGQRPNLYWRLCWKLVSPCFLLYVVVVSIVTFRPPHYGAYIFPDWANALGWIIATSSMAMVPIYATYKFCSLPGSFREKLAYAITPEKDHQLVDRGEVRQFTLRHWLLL

Glutamate NMDA receptor [6] = test: Compound was evaluated for noncompetitive inhibition of N-methyl-D-aspartate (NMDA) Receptor by the displacement of [3H]MK-801 in rat brain membranes; assay type: cell membranes
[7] = target: T1, Sodium-dependent dopamine transporter; test: Equilibrium dissociation constant (KD) for Competitive binding between [3H]WIN-35428 and the compound at human transporter -hDAT
Rattus norvegicus = organism: Rattus norvegicus; test: Compound was evaluated for Dopamine reuptake inhibition in rat striatal synaptosomes; assay type: functional, Brain

T1 sequence (Q01959 whole entry): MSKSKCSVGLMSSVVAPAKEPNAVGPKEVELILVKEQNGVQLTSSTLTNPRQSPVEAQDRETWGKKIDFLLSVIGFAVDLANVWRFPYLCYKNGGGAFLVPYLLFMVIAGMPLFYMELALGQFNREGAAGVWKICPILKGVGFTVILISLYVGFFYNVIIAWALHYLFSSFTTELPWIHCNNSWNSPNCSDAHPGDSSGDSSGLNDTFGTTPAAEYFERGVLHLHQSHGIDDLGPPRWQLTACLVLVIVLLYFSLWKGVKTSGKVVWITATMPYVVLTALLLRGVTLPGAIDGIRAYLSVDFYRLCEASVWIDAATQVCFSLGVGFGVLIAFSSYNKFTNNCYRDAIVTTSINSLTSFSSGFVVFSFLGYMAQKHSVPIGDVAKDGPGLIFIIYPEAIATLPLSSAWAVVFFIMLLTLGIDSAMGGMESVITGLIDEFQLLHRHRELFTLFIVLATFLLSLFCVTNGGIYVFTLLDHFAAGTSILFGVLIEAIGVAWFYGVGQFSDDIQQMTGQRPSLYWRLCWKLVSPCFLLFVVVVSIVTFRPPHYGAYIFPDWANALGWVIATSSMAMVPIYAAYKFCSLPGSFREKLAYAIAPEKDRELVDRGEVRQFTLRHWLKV

Row | Compound | Ki [3] [µM] | Kd [4] [µM] | Ki [5] [µM] | IC50 (Glutamate NMDA receptor [6]) [µM] | Kd [7] [µM] | IC50 (Glutamate NMDA receptor [1]) [µM] | Kd [2] [µM] | Kd (Rattus norvegicus) [µM]
1 | NC[C@@H](c1ccc2ccccc2c1)[C@@H](O)c1ccccc1 (racemic) | – | – | – | – | – | 65 | 0.14 | –
2 | CN(C)C[C@@H](c1ccc2ccccc2c1)[C@@H](O)c1ccccc1 (racemic) | – | – | – | – | – | 143 | 0.07 | –
3 | COc1ccc([C@H](CN(C)C)[C@@H](O)C2CCCCC2)cc1 (racemic) | 0.22 | 1.8 | 0.64 | – | – | > 200 | 3.5 | –
4 | CC(C)(C)[C@H](O)[C@@H](CN)c1ccccc1 (racemic) | 3.8 | 47.9 | 4.57 | – | – | 14 | 7.26 | –
5 | CC(C)(C)[C@H](O)[C@@H](CN)c1ccc2ccccc2c1 (racemic) | – | 0.055 | 0.12 | – | – | 3 | 27 | 0.278
6 | CN(C)C[C@@H](c1ccccc1)[C@@H](O)C(C)(C)C (racemic) | 0.83 | 3.43 | 1.2 | – | – | 121 | 21.4 | –
7 | CN(C)C[C@@H](c1ccc2ccccc2c1)[C@@H](O)C(C)(C)C (racemic) | 0.01 | 0.0299 | 0.06 | – | – | 21 | 0.34 | –

Now from value to molecule, other results behind:

Row | Ki [3] [µM] | Kd [4] [µM] | Ki [5] [µM] | IC50 (Glutamate NMDA receptor [6]) [µM] | Kd [7] [µM] | Compound | IC50 (Glutamate NMDA receptor [1]) [µM] | Kd [2] [µM] | Kd (Rattus norvegicus) [µM]
8 | 5.78 | 12.5 | 6.6 | – | – | NC[C@@H](c1ccccc1)[C@@H](O)c1ccccc1 (racemic) | 5.6 | 24 | –
9 | 8.6 | 22.5 | 5.31 | – | – | Cc1cc(C)c([C@H](O)[C@@H](CN)c2ccccc2)c(C)c1 (racemic) | 63 | 0.34 | –
10 | 0.99 | 2.25 | 1.55 | 47 | 12 | CN(C)C[C@@H](c1ccccc1)[C@@H](O)c1ccccc1 (racemic) | – | – | –
11 | 0.33 | 1.54 | 1.46 | – | – | COc1ccc([C@H](CN)[C@@H](O)C2CCCCC2)cc1 (racemic) | 84 | 4.31 | –
12 | 8.5 | 35.8 | 4.88 | – | – | Cc1cc(C)c([C@H](O)[C@@H](CN(C)C)c2ccccc2)c(C)c1 (racemic) | > 200 | 42 | –
13 | 0.17 | 0.155 | 48 | – | – | CCOc1ccccc1OCC1CNCCO1 (racemic) [VILOXAZINE] | – | 0.155 | –
14 | – | – | 2.38 | – | – | CCc1nn(CCCN2CCN(c3cccc(Cl)c3)CC2)c(=O)n1CCOc1ccccc1 [NEFAZODONE] | – | – | –
